Laboratory results taken from US7588903B2, “Use of isogenic drug-resistant cell lines to determine the sequence of chemotherapeutic drug treatment” (priority 2003, dated 2009).
Several values for one entry are separate records, joined by “and”; a condition that tells them apart may be missing. Equal entries are not always repeated. Where two headings read alike, the source gives them in different places. Values belong to the molecule of their own block, whether it stands above or below them.

Assays:
MCF-7DOX cells [1] = format: cell-based; conditions: for resistance factor (IC50 for MCF-7DOX cells divided by IC50 for MCF-7 cells): 24 h drug treatment, clonogenic assay
Excerpt: (§1) Twice weekly, nonadherent (dead) cells were removed by discarding the existing medium and replacing it with fresh, drug-containing medium. […] At the end of the two-week period, all remaining viable cells were released by trypsinization, diluted 10-fold into PBS, and harvested by centrifugation. The cells were resuspended in fresh H-21 medium, with several aliquots removed for storage and future analysis. […] Nonadherent dead cells were again removed as described above and the process repeated until a drug dose was reached where all cells in the population were killed. Cells that grew at the maximally-tolerated drug concentrations were deemed to be “terminally selected”.
(§2) Thus, the concentration of valspodar used in some experiments was increased to 10 μM.
(§3) Briefly, 5 ml of H21 medium with 10% fetal bovine serum was introduced into 12 tissue culture flasks (25 cm^2 area) and each flask seeded with 2.5×10^5 cells. […] Each sample was vortexed vigorously for 10 s to ensure even distribution of cells within the viscous medium. 1.2 ml of each cellular suspension were placed into 6 well plates and incubated for a minimum of one week at 37° C./5% CO2 until large colonies of cells were visible.

MCF-7TAX cells [2] = format: cell-based; conditions: for resistance factor (IC50 for MCF-7TAX cells divided by IC50 for MCF-7 cells): 24 h drug treatment, clonogenic assay
Excerpt: as §1, §2, §3

MCF-7 cells [3] = assay: Selection of MCF-7 cells in increasing drug concentrations (maximally tolerated dose); format: cell-based, human; conditions: 3-fold dose steps, terminally selected
Method: Twice weekly, nonadherent (dead) cells were removed by discarding the existing medium and replacing it with fresh, drug-containing medium. […] At the end of the two-week period, all remaining viable cells were released by trypsinization, diluted 10-fold into PBS, and harvested by centrifugation. The cells were resuspended in fresh H-21 medium, with several aliquots removed for storage and future analysis. The remaining cells were incubated with drug at a concentration 3-fold higher than the previous dose. Nonadherent dead cells were again removed as described above and the process repeated until a drug dose was reached where all cells in the population were killed. Cells that grew at the maximally-tolerated drug concentrations were deemed to be “terminally selected”. The maximally-tolerated drug doses during the selection process were 0.3 μM and 6.6 nM for doxorubicin and paclitaxel, respectively.

procaspase-7 = assay: Immunoblotting of whole cell extracts of MCF-7 cells after drug treatment; format: cell-based, human; conditions: 24 h drug treatment
Method: (§4) Extraction of proteins from whole cells was performed using RIPA buffer [1% Nonidet P-40, 0.5% sodium deoxycholate, 0.1% SDS, and 1 Complete™ protease inhibitor tablet (Roche Pharmaceuticals, Baie d'Urfe, QC) in 50 ml of PBS]. Prior to use, the RIPA buffer was supplemented with sodium orthovanadate and phenylmethylsulfonyl fluoride at final concentrations of 1 mM and 0.1 mg/ml, respectively. Cultured cells were grown as a monolayer and allowed to reach 70-90% confluence in 10 cm tissue culture plates. Twenty-four hours prior to extraction, some plates of cells were treated with 9 nM doxorubicin or 0.56 nM paclitaxel. After drug treatment, the medium was removed and the cells rinsed twice with PBS. All further steps were carried out on ice to minimize denaturation/proteolysis of the proteins. Chilled RIPA buffer (0.6 ml) was added to each plate, after which the cells were scraped from the plate using a Teflon tape-coated razor blade, and transferred to a 1.5 ml microfuge tube. An additional 0.3 ml of RIPA buffer was added to the plate and the resultant suspension was combined with the lysate. The sample was then passed repeatedly through a 21 gauge needle to lyse the cells and shear any DNA present. The lysates were then incubated on ice for 30 minutes, after which they were clarified by centrifugation at 15,000 g for 20 minutes at 4° C. The supernatants were then removed, mixed well, and aliquots placed in 0.5 ml microfuge tubes and stored at −80° C.
(§5) Proteins ([…]) from whole cell extracts were loaded into each lane of a 10% SDS-polyacrylamide gel, on duplicate gels. After electrophoresis, one of the gels was stained with Coomassie Brilliant Blue R to confirm that similar amounts of protein were loaded on gels. A second gel was electrophoretically transferred to a nitrocellulose membrane and the membrane incubated for one hour in blocking buffer [TBS buffer (20 mM Tris, 150 mM NaCl, pH 7.5) supplemented with 5% skim milk powder] to occupy all remaining protein-binding sites on the membrane. After blocking, the membranes were incubated for 1.5 hours at room temperature with an antibody to either caspase-3 (Santa Cruz Biotechnology, Santa Cruz, Calif., clone E-8), caspase-7 (Pharmingen Laboratories, San Diego, Calif., clone B94-1) or caspase-9 (Santa Cruz Biotechnology, Santa Cruz, Calif., clone C-17). Both antibodies were diluted 1:500 in blocking buffer containing 0.1% Tween 20. The primary antibody was then discarded and the membrane washed exhaustively with TBST (TBS buffer supplemented with 0.1% Tween 20). […]

procaspase-9 [4] = assay: as above; format: cell-based, human; conditions: 24 h, 9 nM doxorubicin or 0.56 nM paclitaxel
Method: as §4, §5

MCF-7 cells [5] = assay: Clonogenic assay, drug-sensitive parental cells; conditions: for IC50: Homo sapiens
MCF-7DOX cells [6] = assay: [3H]-paclitaxel / [14C]-5-fluorouracil accumulation by liquid scintillation; conditions: 10 nM paclitaxel, 24 hours
procaspase-9 [7] = assay: Doxorubicin treatment of PA1 ovarian cell line, procaspase-9 level; format: cell-based; conditions: PA1 cells
MCF-7TAX cells [8] = conditions: 2 μM doxorubicin
MCF-7DOX cells [9] = assay: Cellular doxorubicin uptake by flow cytometry; conditions: 2 μM doxorubicin, steady state
[10] = MCF7, read-out: IC50 (uptake concentration near the IC50)
[11] = MCF7, read-out: concentration required to kill 50% of the cells (IC50)

resistance factor (IC50 for MCF-7TAX cells divided by IC50 for MCF-7 cells) (MCF-7TAX cells [2]): Very little to no cross-resistance
SMILES: CN(Cc1cnc2nc(N)nc(N)c2n1)c1ccc(C(=O)N[C@@H](CCC(=O)O)C(=O)O)cc1 [methotrexate]

resistance factor (IC50 for MCF-7DOX cells divided by IC50 for MCF-7 cells) (MCF-7DOX cells [1]): approximately 4600 fold
SMILES: CC[C@]1(O)C[C@@H]2CN(CCc3c([nH]c4ccccc34)[C@@](C(=O)OC)(c3cc4c(cc3OC)N(C)[C@H]3[C@@](O)(C(=O)OC)[C@H](OC(C)=O)[C@]5(CC)C=CCN6CC[C@]43[C@@H]65)C2)C1 [vinblastine, Vinblastine]

resistance factor (IC50 for MCF-7DOX cells divided by IC50 for MCF-7 cells) (MCF-7DOX cells [1]): 14,600 fold | resistance factor (IC50 for MCF-7TAX cells divided by IC50 for MCF-7 cells) (MCF-7TAX cells [2]): 46 fold
SMILES: CC(=O)O[C@@]12CO[C@@H]1C[C@H](O)[C@@]1(C)C(=O)[C@H](O)C3=C(C)[C@@H](OC(=O)[C@H](O)[C@@H](NC(=O)OC(C)(C)C)c4ccccc4)C[C@@](O)([C@@H](OC(=O)c4ccccc4)[C@H]21)C3(C)C [docetaxel]

resistance factor (IC50 for MCF-7DOX cells divided by IC50 for MCF-7 cells) (MCF-7DOX cells [1]): 124 fold | resistance factor (IC50 for MCF-7TAX cells divided by IC50 for MCF-7 cells) (MCF-7TAX cells [2]): ~13 fold
SMILES: COc1cccc2c1C(=O)c1c(O)c3c(c(O)c1C2=O)C[C@@](O)(C(=O)CO)C[C@@H]3O[C@H]1C[C@H](N)[C@@H](O)[C@H](C)O1 [epirubicin]

resistance factor (IC50 for MCF-7TAX cells divided by IC50 for MCF-7 cells) (MCF-7TAX cells [2]): 13 fold
SMILES: O=c1[nH]cc(F)c(=O)[nH]1 [5-fluorouracil]
IC50 (MCF-7 cells [5]; [10]): ~1000 nM

resistance factor (IC50 for MCF-7DOX cells divided by IC50 for MCF-7 cells) (MCF-7DOX cells [1]): 52 fold
SMILES: COc1cccc2c1C(=O)c1c(O)c3c(c(O)c1C2=O)C[C@@](O)(C(=O)CO)C[C@@H]3O[C@H]1C[C@H](N)[C@H](O)[C@H](C)O1 [doxorubicin, Doxorubicin]
maximally-tolerated drug dose during the selection process (MCF-7 cells [3]): 300 nM | effect on procaspase-7 levels (procaspase-7): upregulated | effect on procaspase-9 levels (procaspase-9 [4]): elevated levels | effect on procaspase-9 levels (procaspase-9 [7]): decrease in procaspase-9 levels | doxorubicin uptake as percent of uptake in MCF-7 cells (MCF-7TAX cells [8]): 68.6% | reduction of doxorubicin accumulation compared to MCF-7 cells (MCF-7DOX cells [9]): 91.4% | IC50 (MCF-7 cells [5]; [11]): 9 nM

Continued, molecule first:

SMILES: COc1cc([C@@H]2c3cc4c(cc3[C@@H](O[C@@H]3O[C@@H]5CO[C@@H](C)O[C@H]5[C@H](O)[C@H]3O)[C@H]3COC(=O)[C@H]23)OCO4)cc(OC)c1O [etoposide]
resistance factor (IC50 for MCF-7DOX cells divided by IC50 for MCF-7 cells) (MCF-7DOX cells [1]): 31 fold | resistance factor (IC50 for MCF-7TAX cells divided by IC50 for MCF-7 cells) (MCF-7TAX cells [2]): Very little to no cross-resistance

SMILES: CC(=O)O[C@H]1C(=O)[C@@]2(C)[C@H]([C@H](OC(=O)c3ccccc3)[C@]3(O)C[C@H](OC(=O)[C@H](O)[C@@H](NC(=O)c4ccccc4)c4ccccc4)C(C)=C1C3(C)C)[C@]1(OC(C)=O)CO[C@@H]1C[C@@H]2O [paclitaxel]
resistance factor (IC50 for MCF-7DOX cells divided by IC50 for MCF-7 cells) (MCF-7DOX cells [1]): 4,700 fold and > 4,000 fold | resistance factor (IC50 for MCF-7TAX cells divided by IC50 for MCF-7 cells) (MCF-7TAX cells [2]): 42 fold | maximally-tolerated drug dose during the selection process (MCF-7 cells [3]): 6.6 nM | effect on procaspase-7 levels (procaspase-7): without effect | effect on procaspase-9 levels (procaspase-9 [4]): no effect | IC50 (MCF-7 cells [5]; [10]): ~10 nM | IC50 (MCF-7 cells [5]; [11]): 0.56 nM | paclitaxel accumulated as percent of that in MCF-7 cells (MCF-7DOX cells [6]): 2.5%

SMILES: O=P1(N(CCCl)CCCl)NCCCO1 (stereo not shown) [cyclophosphamide]
resistance factor (IC50 for MCF-7TAX cells divided by IC50 for MCF-7 cells) (MCF-7TAX cells [2]): Very little to no cross-resistance

SMILES: N.N.[Cl][Pt][Cl] [cisplatin]
resistance factor (IC50 for MCF-7TAX cells divided by IC50 for MCF-7 cells) (MCF-7TAX cells [2]): Very little to no cross-resistance

SMILES: CCc1c2c(nc3ccc(OC(=O)N4CCC(N5CCCCC5)CC4)cc13)-c1cc3c(c(=O)n1C2)COC(=O)[C@]3(O)CC [irinotecan]
resistance factor (IC50 for MCF-7TAX cells divided by IC50 for MCF-7 cells) (MCF-7TAX cells [2]): Very little to no cross-resistance

SMILES: C/C=C/C[C@@H](C)C(=O)[C@H]1C(=O)N[C@@H](C(C)C)C(=O)N(C)CC(=O)N(C)[C@@H](CC(C)C)C(=O)N[C@@H](C(C)C)C(=O)N(C)[C@@H](CC(C)C)C(=O)N[C@@H](C)C(=O)N[C@H](C)C(=O)N(C)[C@@H](CC(C)C)C(=O)N(C)[C@@H](CC(C)C)C(=O)N(C)[C@@H](C(C)C)C(=O)N1C [valspodar]
concentration tolerated without resulting in cell killing (MCF-7DOX cells [1]; MCF-7DOX cells): up to 10 μM | concentration tolerated without resulting in cell killing (MCF-7TAX cells [2]; MCF-7TAX cells): up to 10 μM | effect on 5-fluorouracil sensitivity (MCF-7 cells [5]; MCF-7 cells): no effect | maximum amount which could be added without inducing significant cytotoxicity (MCF-7 cells [5]; MCF-7 cells, one hour at 37° C.): Two | effect on cell viability (MCF-7 cells [5]; non-expressing MCF-7 cells, 2 μM valspodar (data not shown)): only a slight effect
